For assay [1], the target named is T1, human sphingosine-1-phosphate receptor 1 (S1P1) (Homo sapiens, UniProt P21453). The assay can be described thus: β-Arrestin2 recruitment assay (PathHunter), S1P1 CHO-K1 cells. The conditions noted are these: for Emax: CHO-K1, β-arrestin2 recruitment, efficacy normalized to maximum efficacy of fingolimod, read-out: hS1P1 B-arrestin2 SPAN; for EC50: β-arrestin2 recruitment, potency, read-out: hS1P1 B-arrestin2 pEC50 (converted). It counts as cell-based. A digest of the protocol:
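CHO-K1 cells co-expressing EA-β-arrestin2 and ProLink-tagged human S1P1 plated overnight, then stimulated 60 min at 37 °C. Enzyme-fragment complementation (β-galactosidase) detected after 1 h at room temperature by luminescence; values normalized to fingolimod.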
Target sequence in this assay (P21453 whole entry, the tested form may be a part): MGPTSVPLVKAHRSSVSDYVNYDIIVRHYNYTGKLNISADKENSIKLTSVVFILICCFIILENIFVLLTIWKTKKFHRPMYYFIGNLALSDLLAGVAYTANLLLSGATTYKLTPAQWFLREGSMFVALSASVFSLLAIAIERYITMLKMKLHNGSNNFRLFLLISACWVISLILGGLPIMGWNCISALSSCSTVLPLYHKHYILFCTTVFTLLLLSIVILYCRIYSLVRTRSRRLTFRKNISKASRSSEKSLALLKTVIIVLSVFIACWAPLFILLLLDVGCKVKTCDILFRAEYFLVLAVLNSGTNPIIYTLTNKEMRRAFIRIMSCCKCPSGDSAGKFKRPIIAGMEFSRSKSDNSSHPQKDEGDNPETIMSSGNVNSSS
Target sequence in this assay (P32121 whole entry partner, the tested form may be a part): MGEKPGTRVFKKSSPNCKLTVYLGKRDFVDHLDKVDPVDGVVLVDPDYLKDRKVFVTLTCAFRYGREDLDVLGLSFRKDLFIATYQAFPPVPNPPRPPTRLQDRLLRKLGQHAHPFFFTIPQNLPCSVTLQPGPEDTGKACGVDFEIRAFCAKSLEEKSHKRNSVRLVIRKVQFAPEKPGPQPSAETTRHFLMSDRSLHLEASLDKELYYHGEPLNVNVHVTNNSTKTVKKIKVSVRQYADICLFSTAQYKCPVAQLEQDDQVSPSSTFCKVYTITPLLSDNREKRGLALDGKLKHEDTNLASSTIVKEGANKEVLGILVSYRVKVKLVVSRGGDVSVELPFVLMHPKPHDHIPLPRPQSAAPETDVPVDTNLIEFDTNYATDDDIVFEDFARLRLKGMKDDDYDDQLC

The target in assay [2] is T1, human sphingosine-1-phosphate receptor 1 (S1P1). The assay can be described thus: Inhibition of cAMP production (HTRF cAMP HiRange), S1P1 CHO-K1 cells. The conditions noted are these: inhibition of cAMP production; for Emax: CHO-K1, efficacy normalized to maximum efficacy of fingolimod, read-out: hS1P1 CAMP SPAN; for EC50: potency, read-out: hS1P1 CAMP pEC50 (converted). It counts as cell-based. A digest of the protocol:
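CHO-K1 cells co-expressing human S1P1 (C-terminal ProLink tag) and EA-β-arrestin2, plated overnight; after 30 min compound incubation at 37 °C, intracellular cAMP measured by HTRF TR-FRET following 1 h at room temperature. Values normalized to fingolimod.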
Target sequence in this assay (P21453 whole entry, the tested form may be a part): as the sequence (P21453 whole entry, the tested form may be a part) above
Background: Changes in cAMP serve as a functional read-out for many G protein-coupled receptors.

Molecules are shown by their SMILES. Some results are limits rather than exact numbers.

Turning to `C=CCNc1ccc(-c2nc(-c3ccc4[nH]c(=O)oc4c3)no2)cc1C#N` [Compound 189, 2-(allylamino)-5-(3-(2-oxo-2,3-dihydro-benzo[d]oxazol-6-yl)-1,2,4-oxadiazol-5-yl)benzonitrile], in assay [1], the Emax was > 75% and the EC50 was < 10 µM. In addition, in assay [2], the Emax was > 75% and the EC50 was < 0.316 µM.

As for `Cc1ccc(-c2noc(-c3ccc4c(c3)nnn4C3CCCC3)n2)s1` [Compound 192, 1-cyclopentyl-5-[3-(5-methylthiophen-2-yl)-1,2,4-oxadiazol-5-yl]-1H-1,2,3-benzotriazole], the Emax in assay [1] and in assay [2] was < 75% each time. The EC50 in assay [1] is > 10 µM; in assay [2], > 0.316 µM.

With `CCCn1nnc2cc(-c3nc(-c4ccc(C(F)(F)F)c(F)c4)no3)ccc21` [Compound 193, 5-{3-[3-fluoro-4-(trifluoromethyl)phenyl]-1,2,4-oxadiazol-5-yl}-1-propyl-1H-1,2,3-benzotriazole], in assay [1], the Emax is < 75% and the EC50 was > 10 µM. Also, in assay [2], the Emax was < 75% and the EC50 was > 0.316 µM.

As for `COc1ccc(-c2nc(-c3ccc4c(c3)nnn4C3CCCC3)no2)cc1` [Compound 196, 3-(1-cyclopentyl-1H-benzo[d][1,2,3]triazol-5-yl)-5-(4-methoxyphenyl)-1,2,4-oxadiazole], in assay [1], the Emax was < 75% and the EC50 is > 10 µM. In assay [2], the Emax was < 75% and the EC50 is > 0.316 µM.

With `CC(C)n1nnc2cc(-c3noc(C45CC6CC(CC(C6)C4)C5)n3)ccc21` [Compound 200, 5-[5-(adamantan-1-yl)-1,2,4-oxadiazol-3-yl]-1-(propan-2-yl)-1H-1,2,3-benzotriazole], in assay [1], the Emax is < 75% and the EC50 was > 10 µM. In addition, in assay [2], the Emax is < 75% and the EC50 was > 0.316 µM.

As for `Cc1cc(-c2nc(-c3ccc4c(c3)nnn4C(C)C)no2)cnc1C` [Compound 201, 5-(5,6-dimethyl-pyridin-3-yl)-3-(1-isopropyl-1H-benzo[d][1,2,3]triazol-5-yl)-1,2,4-oxadiazole], in assay [1], the Emax was > 75% and the EC50 was > 10 µM. For the same compound, in assay [2], the Emax is < 75% and the EC50 was > 0.316 µM.

Take `COc1ccccc1-c1nsc(-c2ccc3c(c2)nnn3C(C)C)n1` [Compound 213, 5-[3-(2-methoxy-phenyl)-1,2,4-thiadiazol-5-yl]-1-(propan-2-yl)-1H-1,2,3-benzotriazole]: in assay [1], the Emax was > 75% and the EC50 is > 10 µM. In assay [2], the Emax was > 75% and the EC50 is > 0.316 µM.

For the compound `O=C1CC2(CCC(F)(F)CC2)Oc2ccc(-c3nc(-c4ccncc4)no3)cc21` [Compound 217, 4′,4′-difluoro-6-[3-(pyridin-4-yl)-1,2,4-oxadiazol-5-yl]-3,4-dihydrospiro[1-benzopyran-2,1′-cyclohexane]-4-one], the Emax in assay [1] and in assay [2] was < 75% each time. Moreover, the EC50 in assay [1] is > 10 µM; in assay [2] it was > 0.316 µM.

Take `CCCC1(CCC)CC(=O)c2cc(-c3nc(-c4cccnc4)no3)ccc2O1` [Compound 218, 2,2-dipropyl-6-[3-(pyridin-3-yl)-1,2,4-oxadiazol-5-yl]-3,4-dihydro-2H-1-benzopyran-4-one]: in assay [1], the Emax was > 75% and the EC50 is > 10 µM. Besides, in assay [2], the Emax is > 75% and the EC50 is > 0.316 µM.

Regarding `CC(C)n1nnc2cc(-c3ncc(-c4ccccc4Br)s3)ccc21` [Compound 220, 5-(2-bromophenyl)-2-(1-isopropylbenzo-triazol-5-yl)thiazole], the Emax in assay [1] and in assay [2] was < 75% in each case. For the same compound, the figures for the EC50 in assay [1] and in assay [2] were > 10 µM and > 0.316 µM, respectively.

As to `CCC1(CC)CC(=O)c2cc(-c3nsc(-c4ccccc4OC)n3)ccc2O1` [Compound 222, 2,2-diethyl-6-(5-(2-methoxyphenyl)-1,2,4-thiadiazol-3-yl)chroman-4-one], the Emax in assay [1] is < 75%; in assay [2], > 75%. Also, the EC50 is < 10 µM in assay [1] and > 0.316 µM in assay [2].

For `CCC1(CC)CC(=O)c2cc(-c3nc(-c4cccc(C)c4)no3)ccc2O1` [Compound 225, 2,2-diethyl-6-(3-(m-tolyl)-1,2,4-oxadiazol-5-yl)chroman-4-one], in assay [1], the Emax was < 75% and the EC50 is < 10 µM. In addition, in assay [2], the Emax is > 75% and the EC50 is > 0.316 µM.

On to `CCC1(CC)CC(=O)c2cc(-c3nc(-c4ccncc4F)no3)ccc2O1` [Compound 226, 2,2-diethyl-6-(3-(3-fluoropyridin-4-yl)-1,2,4-oxadiazol-5-yl)chroman-4-one], for which, in assay [1], the Emax was > 75% and the EC50 was > 10 µM. In addition, in assay [2], the Emax is > 75% and the EC50 was > 0.316 µM.

With `CCC1(CC)CC(=O)c2cc(-c3nc(-c4cccc(O)c4)no3)ccc2O1` [Compound 227, 2,2-diethyl-6-[3-(3-hydroxyphenyl)-1,2,4-oxadiazol-5-yl]chroman-4-one], in assay [1], the Emax was > 75% and the EC50 is > 10 µM. In assay [2], the Emax is < 75% and the EC50 is < 0.316 µM.

`COc1cccc(-c2noc(-c3ccc4c(c3)nnn4C(C)C)n2)c1` [Compound 228, 5-(1-isopropyl-1H-benzo[d][1,2,3]triazol-5-yl)-3-(3-methoxy-phenyl)-1,2,4-oxadiazole]: the Emax in assay [1] and in assay [2] was < 75% in each case. The values for the EC50 in assay [1] and in assay [2] were > 10 µM and > 0.316 µM, respectively.

`Cc1cncc(-c2nc(-c3ccc4c(c3)nnn4C(C)C)no2)n1` [Compound 229, 3-(1-isopropyl-1H-benzo[d][1,2,3]triazol-5-yl)-5-(6-methyl-pyrazin-2-yl)-1,2,4-oxadiazole]: in assay [1], the Emax was < 75% and the EC50 is < 10 µM. Moreover, in assay [2], the Emax is < 75% and the EC50 was > 0.316 µM.

`Cc1ccc(-c2nc(-c3ccc4c(c3)nnn4C3CCCC3)no2)cc1` [Compound 235, 3-(1-cyclopentyl-1H-benzo[d][1,2,3]triazol-5-yl)-5-(p-tolyl)-1,2,4-oxadiazole]: the Emax in assay [1] and in assay [2] was < 75% in each case. For the same compound, the figures for the EC50 in assay [1] and in assay [2] were > 10 µM and > 0.316 µM, respectively.

With `CC(C)Oc1ccc(-c2nc(-c3ccc4c(c3)nnn4C(C)C)no2)cc1C(F)(F)F` [Compound 246, 5-(4-isopropoxy-3-(trifluoromethyl)phenyl)-3-(1-isopropyl-1H-benzo[d][1,2,3]triazol-5-yl)-1,2,4-oxadiazole], in assay [1], the Emax is > 75% and the EC50 is < 10 µM. Besides, in assay [2], the Emax is > 75% and the EC50 is < 0.316 µM.

Regarding `CC(C)n1nnc2cc(-c3noc(-c4ccc(-c5ccccc5)cc4)n3)ccc21` [Compound 248, 5-([1,1′-biphenyl]-4-yl)-3-(1-isopropyl-1H-benzo[d][1,2,3]triazol-5-yl)-1,2,4-oxadiazole], in assay [1], the Emax was < 75% and the EC50 is > 10 µM. In assay [2], the Emax is < 75% and the EC50 is > 0.316 µM.

`CC(C)n1nnc2cc(-c3nc(-c4cncnc4)no3)ccc21` [Compound 249, 1-(propan-2-yl)-5-[3-(pyrimidin-5-yl)-1,2,4-oxadiazol-5-yl]-1H-1,2,3-benzotriazole]: in assay [1], the Emax is < 75% and the EC50 was > 10 µM. Besides, in assay [2], the Emax is > 75% and the EC50 was > 0.316 µM.

With `CCC1(CC)CC(=O)c2cc(-c3nc(-c4ccccc4OC)ns3)ccc2O1` [Compound 257, 2,2-diethyl-6-(3-(2-methoxyphenyl)-1,2,4-thiadiazol-5-yl)chroman-4-one], the Emax in assay [1] is < 75%; in assay [2], > 75%. Further, the EC50 in assay [1] was > 10 µM; in assay [2], > 0.316 µM.

`CCC1(CC)CC(=O)c2cc(-c3nc(-c4cccnc4O)no3)ccc2O1` [Compound 258, 2,2-diethyl-6-(3-(2-hydroxypyridin-3-yl)-1,2,4-oxadiazol-5-yl)chroman-4-one]: in assay [1], the Emax is < 75% and the EC50 was > 10 µM. Also, in assay [2], the Emax is < 75% and the EC50 was > 0.316 µM.

With `CCC1(CC)CC(=O)c2cc(-c3nc(-c4cccc(Cl)c4)no3)ccc2O1` [Compound 261, 6-[3-(3-chlorophenyl)-1,2,4-oxadiazol-5-yl]-2,2-diethyl-chroman-4-one], the values for the Emax in assay [1] and in assay [2] were < 75% and > 75%, respectively. Further, the EC50 is < 10 µM in assay [1] and > 0.316 µM in assay [2].

For `CCC1(CC)CC(=O)c2cc(-c3nc(-c4ccc(S(=O)(=O)NC)cc4)no3)ccc2O1` [Compound 266, 4-(5-(2,2-diethyl-4-oxochroman-6-yl)-1,2,4-oxadiazol-3-yl)-N-methylbenzene-sulfonamide], in assay [1], the Emax was > 75% and the EC50 was < 10 µM. Further, in assay [2], the Emax was > 75% and the EC50 was > 0.316 µM.

With `CCC1(CC)CC(=O)c2cc(-c3nc(-c4ccccc4OC)no3)ccc2O1` [Compound 268, 2,2-diethyl-6-[3-(2-methoxyphenyl)-1,2,4-oxadiazol-5-yl]chroman-4-one], in assay [1], the Emax was > 75% and the EC50 is < 10 µM. Further, in assay [2], the Emax was > 75% and the EC50 is < 0.316 µM.

The values are drawn from US20230114241A1, “METHODS OF TREATING EPILEPSY USING THE SAME” (Trevena, Inc., priority 2019, published 2023).
